Reference: patent US7968556B2, “Heteroaryl compounds, compositions thereof, and methods of treatment therewith” (Signal Pharmaceuticals, LLC, priority 2006, dated 2011)

Tests used:
[1] = target: mTOR (Homo sapiens, UniProt P42345); test: mTOR HTR-FRET Assay; assay type: biochemical
Protocol: The following is an example of an assay that can be used to determine the mTOR inhibitory activity of a test compound. Reagents are prepared as follows:
“Simple TOR buffer” (used to dilute high glycerol TOR fraction): 10 mM Tris pH 7.4, 10 mM NaCl, 0.1% Tween-20, 1 mM DTT (from 1M stock frozen at −20° C. just prior to use). For convenience a large quantity of “Simple TOR buffer” w/o DTT can be stored at 4° C. It can be brought to room temperature and DTT added just prior to dilution of TOR fraction.
5XKB/5XMn/5×ATP solution (used to dilute substrate GST-p70S6kin 81 a.a. just prior to use) (40 ml screen quantity shown):
Enzyme solution: Dilute TOR fraction 1:14 in “Simple TOR Buffer”. For current lot that is 640 μg/ml TOR fraction diluted 14× to yield 45.7 μg/ml TOR in buffer (i.e. 7.85 ml TOR pooled fraction+102.1 ml Simple TOR buffer=110 ml 14× diluted TOR fraction). Each Enzyme Lot must be QC'd prior to assay.
Substrate solution: This may be prepared just prior to assay if preferred. Dilute 5.3 mg/ml GST-p70S6kinase fragment stock to 3.5 μg/ml (97 nM) working stock in 5XKB/5XMn/5×ATP solution (i.e. 26.41 μL (5.3 mg/ml) GST-p70S6+40 ml 5XKB/5XMn/5×ATP=40 ml 3.5 μg/ml (97 nM)).
Assay Buffer (for dilution of Antibodies used in Antibody Detection Reagent):
Antibody Detection Reagent (this reagent should be made just prior to addition to Assay Plates):
Using PlateTrak program (Screen) or Matrix Pipettor (SAR), 19.5 μL of diluted TOR fraction is added to assay plate in all test, reference or positive control wells. 19.5 μL of “Simple TOR buffer” is added to all negative control wells. If treating multiple plates with the same compounds, can increase volume of enzyme to multiples of 19.5 μL in a tall 384 well polypropylene plate.
Using EP3, 0.5 μl of test, reference or control DMSO is added to each well with mixing. Plates are incubated for 30 minutes at room temperature.
Using PlateTrak program (Screen) or Matrix Pipettor (SAR) 5 μL of 5XKB/5XMn/5×ATP/5× substrate solution is added to each well of the assay plate to start the reaction. The solutions are mixed well and incubated for 2 hours at room temperature.
Using PlateTrak program (Screen) or Matrix Pipettor (SAR) 5 μL of 60 mM EDTA is added to stop the reaction. The solutions are mixed well and allowed to sit for 15-20 minutes before the next step.
Using PlateTrak program (Screen) or Matrix Pipettor (SAR) 10 μl of Antibody Detection Reagent is added. The solutions are mixes well and incubated for 5 hours to O/N to allow antibodies to form complexes with phosphorylated substrate.
Plates are read on AnalystHT using protocol Multi-Method protocol.

| SMILES | IC50 [1] | melting point |
| --- | --- | --- |
| NC(=O)c1nc(-c2cccc(O)c2)nc2c1[nH]c(=O)n2-c1c(F)cccc1F [Compound 16, 9-(2,6-difluorophenyl)-2-(3-hydroxyphenyl)-8-oxo-8,9-dihydro-7H-purine-6-carboxamide] | 0.1 to 5 µM | 355 to 358 °C |
| NC(=O)c1nc(-c2cccnc2)nc2c1[nH]c(=O)n2C1CCCCCC1 [Compound 17, 9-cycloheptyl-8-oxo-2-(pyridin-3-yl)-8-9-dihydro-7H-purine-6-carboxamide] | 0.1 to 5 µM |  |
| COc1ccccc1-n1c(=O)[nH]c2c(C(N)=O)nc(-c3cccc4ncccc34)nc21 [Compound 18, 9-(2-methoxyphenyl)-8-oxo-2-(quinolin-5-yl)-8,9-dihydro-7H-purine-6-carboxamide] | > 30 µM | 335 to 337 °C |
| COc1ccccc1-n1c(=O)[nH]c2c(C(N)=O)nc(C3CCCC3)nc21 [Compound 19, 2-cyclopentyl-9-(2-methoxyphenyl)-8-oxo-8,9-dihydro-7H-purine-6-carboxamide] | > 30 µM | 244 to 246 °C |
| COc1ccccc1-n1c(=O)[nH]c2c(C(N)=O)nc(-c3cccc(C(F)(F)F)c3)nc21 [Compound 20, 9-(2-methoxyphenyl)-8-oxo-2-(3-(trifluoromethyl)phenyl)-8,9-dihydro-7H-purine-6-carboxamide] | > 30 µM | 271 to 275 °C |
| COc1ccc(-c2nc(C(N)=O)c3[nH]c(=O)n(-c4ccccc4OC)c3n2)cn1 [Compound 21, 9-(2-methoxyphenyl)-2-(6-methoxypyridin-3-yl)-8-oxo-8,9-dihydro-7H-purine-6-carboxamide] | 10.1 to 20 µM |  |
| NC(=O)c1nc(-c2cccc(O)c2)nc2c1[nH]c(=O)n2-c1ccc(C(F)(F)F)cc1 [Compound 22, 2-(3-hydroxyphenyl)-8-oxo-9-(4-(trifluoromethyl)phenyl)-8,9-dihydro-7H-purine-6-carboxamide] | > 30 µM |  |
| NC(=O)c1nc(-c2cccc(O)c2)nc2c1[nH]c(=O)n2Cc1ccccc1 [Compound 23, 9-benzyl-2-(3-hydroxyphenyl)-8-oxo-8,9-dihydro-7H-purine-6-carboxamide] | > 30 µM | 362 to 366 °C |
| NC(=O)c1nc(-c2cccc(O)c2)nc2c1[nH]c(=O)n2-c1ccccc1OC(F)(F)F [Compound 24, 2-(3-hydroxyphenyl)-8-oxo-9-(2-(trifluoromethoxy)phenyl)-8,9-dihydro-7H-purine-6-carboxamide] | 5.1 to 10 µM |  |
| NC(=O)c1nc(-c2cccc(O)c2)nc2c1[nH]c(=O)n2-c1ccc(Cl)cc1Cl [Compound 25, 9-(2,4-dichlorophenyl)-2-(3-hydroxyphenyl)-8-oxo-8,9-dihydro-7H-purine-6-carboxamide] | 5.1 to 10 µM | 375 to 377 °C |

Other lines, results leading:

| IC50 [1] | melting point | SMILES |
| --- | --- | --- |
| > 30 µM | 295 to 296 °C | COc1ccccc1-n1c(=O)[nH]c2c(C(N)=O)nc(-c3cccc([N+](=O)[O-])c3)nc21 [Compound 26, 9-(2-methoxyphenyl)-2-(3-nitrophenyl)-8-oxo-8,9-dihydro-7H-purine-6-carboxamide] |
| > 30 µM | > 375 °C | NC(=O)c1nc(-c2cccc(O)c2)nc2c1[nH]c(=O)n2-c1cccc(F)c1 [Compound 28, 9-(3-fluorophenyl)-2-(3-hydroxyphenyl)-8-oxo-8,9-dihydro-7H-purine-6-carboxamide] |
| > 30 µM | 237 to 240 °C | COc1ccccc1-n1c(=O)[nH]c2c(C(N)=O)nc(-c3ccccc3C(F)(F)F)nc21 [Compound 29, 9-(2-methoxyphenyl)-8-oxo-2-(2-(trifluoromethyl)phenyl)-8,9-dihydro-7H-purine-6-carboxamide] |
| 5.1 to 10 µM |  | COc1ccccc1-n1c(=O)[nH]c2c(C(N)=O)nc(-c3cncc(F)c3)nc21 [Compound 30, 2-(5-fluoropyridin-3-yl)-9-(2-methoxyphenyl)-8-oxo-8,9-dihydro-7H-purine-6-carboxamide] |
| > 30 µM |  | COc1ccccc1-n1c(=O)[nH]c2c(C(N)=O)nc(C3CCN(Cc4ccccc4)CC3)nc21 [Compound 31, 2-(1-benzylpiperidin-4-yl)-9-(2-methoxyphenyl)-8-oxo-8,9-dihydro-7H-purine-6-carboxamide] |
| > 30 µM | 269 to 272 °C | COc1ccccc1-n1c(=O)[nH]c2c(C(N)=O)nc(-c3cccc(OC(F)(F)F)c3)nc21 [Compound 34, 9-(2-methoxphenyl)-8-oxo-2-(3-(trifluoromethoxy)phenyl)-8,9-dihydro-7H-purine-6-carboxamide] |
| 10.1 to 20 µM | 257 to 259 °C | COc1ccccc1-n1cnc2c(C(N)=O)nc(-c3cccc(O)c3)nc21 [Compound 39, 2-(3-hydroxyphenyl)-9-(2-methoxyphenyl)-9H-purine-6-carboxamide] |
